Reference: US12486269B2 (Aconcagua Bio, Inc., priority 2024, dated 2025)

How the values were obtained:
[1] = biological target: T1, human calcitonin receptor (CTR) (Homo sapiens, UniProt P30988); assay: Calcitonin Receptor (CTR) cAMP Assay; format: cell-based; conditions: COS7-human CTR Clone #2 stable cell line, cAMP dynamic 2 kit, 30 min; read-out: Calcitonin Receptor cAMP Stimulation Activity: EC50
T1 construct: expressed in transfected cells; host or cells: COS-7 (COS7-human CTR Clone #2)
T1 sequence (P30988 25-474): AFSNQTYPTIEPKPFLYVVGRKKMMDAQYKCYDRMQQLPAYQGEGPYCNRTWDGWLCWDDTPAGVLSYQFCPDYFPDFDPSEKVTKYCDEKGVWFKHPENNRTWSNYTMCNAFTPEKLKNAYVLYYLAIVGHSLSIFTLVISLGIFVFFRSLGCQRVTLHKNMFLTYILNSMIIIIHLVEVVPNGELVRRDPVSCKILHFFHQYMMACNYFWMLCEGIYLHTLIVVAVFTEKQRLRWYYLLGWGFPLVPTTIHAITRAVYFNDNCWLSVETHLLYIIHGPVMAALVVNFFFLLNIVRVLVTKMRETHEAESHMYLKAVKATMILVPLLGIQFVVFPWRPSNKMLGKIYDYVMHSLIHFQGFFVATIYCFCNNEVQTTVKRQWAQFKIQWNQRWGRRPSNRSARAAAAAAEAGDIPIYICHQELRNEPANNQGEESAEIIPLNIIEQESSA
Description: (§1) After incubation, the cAMP assay signal was generated using cAMP dynamic 2 kit (Revvity, Cat #62AM4PEC). 10 μL cAMP-d2 working solution was added to each well, followed by 10 μL Anti-cAMP antibody-cryptate working solution which was added to each well using CERTUS FLEX LIQUID […]. The samples were then incubated at room temperature for 1 hour protected from light. the fluorescence was read at 665 and 615 nm with Reader PerkinElmer EnVision 2105. % Activity=100−(mean RLU of test sample−mean RLU of positive control)/(mean RLU of vehicle control−mean RLU of positive control)×100 Calcitonin Receptor (CTR) cAMP Assay
The calcitonin receptor (CTR) belongs to the subfamily of GPCRs known as the secretin or ‘B’ family of GPCRs. Like other class B1 GPCRs, the CT receptor family is canonically coupled to Gs-mediated cAMP production, and measurement of cAMP accumulation has been the primary assay used to determine peptide selectivity and potency.
(§2) To optimize functional activity directed toward Gαs coupling, COS-7 cells were stably transfected with human calcitonin receptor (CTR) to create COS7-human CTR Clone #2 stable cell line. 100×concentration of compound working solutions were prepared with 4-fold serial dilution in 384-well Echo LDV plate (Labcyte, Cat #LP-0200-BC). 200 nL/well 100×concentration of compound working solutions were moved to 384-well white microplate (Perkin Elmer, Cat #6007680) using Labcyte ECHO550. 1×10^5 cells/mL COS7-human CTR Clone #2 cell suspensions prepared with assay buffer [HBSS containing 20 mM HEPES (Gibco, Cat #15630-080), 0.5 mM IBMX (Sigma, Cat #15879) and 0.1% Casein (Sigma, Cat #C4765)], 20 μL cell suspensions were added to each well of previous generated assay plate which already contains 200 nL compound at 100×concentration using ThermoFisher Multidrop Combi (2000 cells/well). Seal the plate and incubate at 37° C. with 5% CO2 for 30 min.
as §1, with “control)×100” for “control)×100 Calcitonin Receptor (CTR) cAMP Assay”

[2] = biological target: T2, COS-7/AMY3 (human calcitonin receptor (CTR) and RAMP3) (Homo sapiens, UniProt O60896+P30988); assay: Amylin Receptor cAMP Assay II; format: cell-based; conditions: values marked **: Amylin Receptor cAMP Assay II; COS-7/AMY3 cells, cAMP dynamic 2 kit, 30 min; read-out: Amylin Receptor cAMP Stimulation Activity: EC50
T2 construct: expressed in transfected cells; host or cells: COS-7
From the text: AMYRs are heterodimers of the class B calcitonin (CT) G-protein-coupled receptor (CTR) and receptor activity-modifying proteins (RAMPs). All three RAMPs can interact with the CTR and form AMY1, AMY2, AMY3 with RAMP1, RAMP2 and RAMP3, respectively. Like other class B1 GPCRs, the CT receptor family is canonically coupled to Gs-mediated cAMP production, and measurement of cAMP accumulation has been the primary assay used to determine peptide selectivity and potency.
as §2, with “and RAMP3, simultaneously.” for “to create COS7-human CTR Clone #2 stable cell line.”, “COS-7/AMY3” for “COS7-human CTR Clone #2”
as §1

T2 sequence (O60896 24-148, one chain of several): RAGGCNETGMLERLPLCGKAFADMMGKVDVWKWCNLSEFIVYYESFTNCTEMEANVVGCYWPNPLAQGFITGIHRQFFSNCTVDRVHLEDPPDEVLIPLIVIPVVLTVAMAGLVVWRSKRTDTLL

SMILES	EC50 [1]	EC50 [2]
O=C(NCc1ccc(F)c(F)c1)c1ccc(-c2c3c(nc(CCc4ccc(F)cc4)c2-c2noc(=O)[nH]2)[C@@H]2CCCN2C3=O)s1 [Compound 101]	0.0129 µM	0.101 µM
COc1cccc2c1CC[C@H]2Nc1nccc2cc(-c3c4c(nc(CCc5ccc(F)cc5)c3-c3n[nH]c(=O)o3)[C@@H]3CCCN3C4=O)sc12 [Compound 102, 5-((S)-2-(4-fluorophenethyl)-4-(7-(((R)-4-methoxy-2,3-dihydro-1H-inden-1-yl)amino)thieno[2,3-c]pyridin-2-yl)-5-oxo-7,8,9,9a-tetrahydro-5H-pyrido[2,3-a]pyrrolizin-3-yl)-1,3,4-oxadiazol-2(3H)-one]	0.0008 µM	0.0122 µM
O=C(NCc1ccc(F)c(F)c1)c1ccc(-c2c3c(nc(CCc4ccc(F)cc4)c2-c2cc(=O)[nH]o2)[C@@H]2CCCN2C3=O)s1 [Compound 103, (S)—N-(3,4-difluorobenzyl)-5-(2-(4-fluorophenethyl)-5-oxo-3-(3-oxo-2,3-dihydroisoxazol-5-yl)-7,8,9,9a-tetrahydro-5H-pyrido[2,3-a]pyrrolizin-4-yl)thiophene-2-carboxamide]	0.0215 µM	0.273 µM
COc1cccc2c1CC[C@H]2Nc1nccc2cc(-c3c4c(nc(CCc5ccc(F)cc5)c3-c3noc(=O)[nH]3)[C@@H]3CCCN3C4=O)sc12 [Compound 104]	0.000926 µM	0.0255 µM
CN(Cc1ccc(F)c(F)c1)c1nccc2cc(-c3c4c(nc(CCc5ccc(F)cc5)c3-c3noc(=O)[nH]3)[C@@H]3CCCN3C4=O)sc12 [Compound 107, (S)-3-(4-(7-((3,4-difluorobenzyl)(methyl)amino)thieno[2,3-c]pyridin-2-yl)-2-(4-fluorophenethyl)-5-oxo-7,8,9,9a-tetrahydro-5H-pyrido[2,3-a]pyrrolizin-3-yl)-1,2,4-oxadiazol-5(4H)-one]	0.00903 µM	0.0344 µM
O=C1c2c(nc(CCc3ccc(F)cc3)c(-c3noc(=O)[nH]3)c2-c2ccc3c(NCc4ccc(F)c(F)c4)nccc3c2)[C@@H]2CCCN12 [Compound 111]	0.205 µM	0.401 µM
O=C1c2c(nc(CCc3ccc(F)cc3)c(-c3noc(=O)[nH]3)c2-c2ccc3c(c2)CC[C@H]3OCc2ccc(F)c(F)c2)[C@@H]2CCCN12 [Compound 113]	0.271 µM	1.12 µM
O=C1c2c(nc(CCc3ccc(F)cc3)c(-c3noc(=O)[nH]3)c2-c2ccc3c(c2)CCCN3CCc2ccc(F)c(F)c2)[C@@H]2CCCN12 [Compound 114]	0.396 µM	0.425 µM
CN(Cc1ccc(F)c(F)c1)C(=O)c1ccc(-c2c3c(nc(CCc4ccc(F)cc4)c2-c2noc(=O)[nH]2)[C@@H]2CCCN2C3=O)s1 [Compound 115]	0.0288 µM	0.566 µM
O=C(c1ccc(-c2c3c(nc(CCc4ccc(F)cc4)c2-c2noc(=O)[nH]2)[C@@H]2CCCN2C3=O)s1)N1CCCC1c1ccc(F)c(F)c1 (stereo partly shown) [Compound 116]	0.0256 µM	0.253 µM
O=C1c2c(nc(CCc3ccc(F)cc3)c(-c3noc(=O)[nH]3)c2-c2cc3ccnc(N4CCCC4c4ccc(F)c(F)c4)c3s2)[C@@H]2CCCN12 (stereo partly shown) [Compound 117]	0.0535 µM	0.113 µM
O=C(N[C@@H]1CCc2cc(F)c(F)cc21)c1ccc(-c2c3c(nc(CCc4ccc(F)cc4)c2-c2noc(=O)[nH]2)[C@@H]2CCCN2C3=O)s1 [Compound 120]	0.00124 µM	0.0236 µM
COc1cccc2c1CC[C@H]2Nc1nccc2cc(-c3c4c(nc(CCc5ccc(C(F)(F)F)cc5)c3-c3noc(=O)[nH]3)[C@@H]3CCCN3C4=O)sc12 [Compound 123]	0.00119 µM	0.0429 µM
COc1cccc2c1CC[C@H]2Nc1nccc2cc(-c3c4c(nc(CCc5cccc(C(F)(F)F)c5)c3-c3noc(=O)[nH]3)[C@@H]3CCCN3C4=O)sc12 [Compound 124, 3-((S)-4-(7-(((R)-4-methoxy-2,3-dihydro-1H-inden-1-yl)amino)thieno[2,3-c]pyridin-2-yl)-5-oxo-2-(3-(trifluoromethyl)phenethyl)-7,8,9,9a-tetrahydro-5H-pyrido[2,3-a]pyrrolizin-3-yl)-1,2,4-oxadiazol-5(4H)-one]	0.000628 µM	0.0182 µM
COc1cccc2c1CC[C@H]2Nc1nccc2cc(-c3c4c(nc(CCc5ccccc5C(F)(F)F)c3-c3noc(=O)[nH]3)[C@@H]3CCCN3C4=O)sc12 [Compound 125, 3-((S)-4-(7-(((R)-4-methoxy-2,3-dihydro-1H-inden-1-yl)amino)thieno[2,3-c]pyridin-2-yl)-5-oxo-2-(2-(trifluoromethyl)phenethyl)-7,8,9,9a-tetrahydro-5H-pyrido[2,3-a]pyrrolizin-3-yl)-1,2,4-oxadiazol-5(4H)-one]	0.000711 µM	0.0505 µM
COc1cccc2c1CC[C@H]2Nc1nccc2cc(-c3c4c(nc(CCc5ccc(C6CC6)cc5)c3-c3noc(=O)[nH]3)[C@@H]3CCCN3C4=O)sc12 [Compound 127, 3-((S)-2-(4-cyclopropylphenethyl)-4-(7-(((R)-4-methoxy-2,3-dihydro-1H-inden-1-yl)amino)thieno[2,3-c]pyridin-2-yl)-5-oxo-7,8,9,9a-tetrahydro-5H-pyrido[2,3-a]pyrrolizin-3-yl)-1,2,4-oxadiazol-5(4H)-one]	0.00436 µM	0.143 µM
COc1cccc2c1CC[C@H]2Nc1nccc2cc(-c3c4c(nc(CC5CCc6cc(F)ccc65)c3-c3noc(=O)[nH]3)[C@@H]3CCCN3C4=O)sc12 (stereo partly shown) [Compound 128]	0.00113 µM	0.0219 µM
O=C1c2c(nc(CCc3ccc(F)cc3)c(-c3noc(=O)[nH]3)c2-c2cc3ccnc(NCc4ccc(F)c(F)c4)c3s2)[C@@H]2CCCN12 [Compound 130]	0.00306 µM	0.0383 µM
O=C1c2c(nc(CCc3ccc(F)cc3)c(-c3noc(=O)[nH]3)c2-c2cc3ccnc(OCc4ccc(F)c(F)c4)c3s2)[C@@H]2CCCN12 [Compound 133, (S)-3-(4-(7-((3,4-difluorobenzyl)oxy)thieno[2,3-c]pyridin-2-yl)-2-(4-fluorophenethyl)-5-oxo-7,8,9,9a-tetrahydro-5H-pyrido[2,3-a]pyrrolizin-3-yl)-1,2,4-oxadiazol-5(4H)-one]	0.00442 µM	0.0907 µM
O=C1c2c(nc(CCc3ccc(F)cc3)c(-c3noc(=O)[nH]3)c2-c2cc3ccnc(N[C@@H]4CCCc5ccccc54)c3s2)[C@@H]2CCCN12 [Compound 139]	0.0027 µM	0.0415 µM
